Tests used:
[1] = test system: Nanchung and Water witch (Nan + Wtrw) complexes; experiment: Calcium mobilization (fluo-4, FLIPR) in CHO-K1 cells co-expressing Nanchung and Water witch; details: for Ca2+ mobilization response: CHO-K1 cells co-expressing Nanchung and Water witch
Excerpt: (§1) DNAs encoding for tagged TRP channels were delivered into CHO-K1 cells using adenoviruses. Adenovirus-mediated gene delivery allowed for expression of the gene of interest, optimize expression levels and stoichiometry of subunits, as well as prevention of possible toxic effects of insect TRP channels by maintaining virus-infected cells at room temperature.
(§2) To test the hypothesis that Water witch may also be involved in the action of PM and AP, Water witch was expressed in CHO-K1 cells either alone or in combination with Nanchung. Given that TRP channels are permeable for Ca2+, cell responces were measured by monitoring Ca2+ mobilization using Ca2+ sensitive fluorescent probe FLUO4.
(§3) Hamster CHO-K1 cells (ATCC ® CCL-61TM) were infected with adenoviruses expressing TRP channels individually or in combinations. The cells were kept overnight at 37° C., followed by 3 days at 25° C. The medium was changed two days after seeding. Calcium mobilization was detected using fluorescent calcium probe fluo-4AM (Life Technologies) and measured by FLIPR-TETRA instrument (Molecular Devices, Sunnyvale, CA). The cells were loaded with 50 µl of Hank’s buffered salt solution (HBSS) containing 4 µM fluo-4AM, 5 mM probenecid, 20 mM CaCl2, and 0.02% pluoronic for 2 hours at 25° C. The dye was then discarded, 50 µl of HBSS were added. The test compounds were dissolved in DMSO and added to the cells in 50 µl HBSS, yielding a final DMSO concentration of 0.2%. Fluorescence was monitored for 10 minutes at 1 second intervals at 470-495 nm/515-575 nm excitation/emission wavelengths. EC50 values were calculated using GraphPad Prism (GraphPad Software).

[2] = test system: Inactive and Water witch (Iav + Wtrw); experiment: Calcium mobilization in CHO-K1 cells co-expressing Inactive and Water witch; format: cell-based, Drosophila melanogaster
Water witch (Wtrw) = experiment: Calcium mobilization in CHO-K1 cells expressing Water witch alone; details: CHO-K1 cells expressing Water witch individually
Excerpt: as §1, §2, §3

[3] = test system: parental mammalian cells (CHO-K1); experiment: Calcium mobilization in parental mammalian cells; format: cell-based, hamster; details: prior to infection
Nanchung (Nan) [4] = experiment: Calcium mobilization in CHO-K1 cells expressing Nanchung alone; format: cell-based, Drosophila melanogaster; details: CHO-K1 cells expressing Nanchung individually
[5] = test system: Nanchung and Inactive (Nan + Iav) complexes; experiment: Calcium mobilization in CHO-K1 cells co-expressing Nanchung and Inactive; format: cell-based, Drosophila melanogaster
[6] = biological target: complexes formed by Nanchung protein and Water witch protein (Nan + Wtrw) (Drosophila melanogaster, UniProt A0ACM8PYI9); experiment: biochemical; format: binding; details: membranes from cells co-expressing Nanchung and Water witch
[7] = test system: complexes formed by Nanchung protein and Inactive protein; experiment: [3H]-afidopyropen competition binding to membranes of cells co-expressing Nanchung and Inactive; set-up: species or system Drosophila melanogaster; details: membranes from cells co-expressing Nanchung and Inactive
Nanchung (Nan) [8] = details: previously shown; cited from earlier work

Chain of complexes formed by Nanchung protein and Water witch protein (Nan + Wtrw) (Q9VHY7 entry or part of it): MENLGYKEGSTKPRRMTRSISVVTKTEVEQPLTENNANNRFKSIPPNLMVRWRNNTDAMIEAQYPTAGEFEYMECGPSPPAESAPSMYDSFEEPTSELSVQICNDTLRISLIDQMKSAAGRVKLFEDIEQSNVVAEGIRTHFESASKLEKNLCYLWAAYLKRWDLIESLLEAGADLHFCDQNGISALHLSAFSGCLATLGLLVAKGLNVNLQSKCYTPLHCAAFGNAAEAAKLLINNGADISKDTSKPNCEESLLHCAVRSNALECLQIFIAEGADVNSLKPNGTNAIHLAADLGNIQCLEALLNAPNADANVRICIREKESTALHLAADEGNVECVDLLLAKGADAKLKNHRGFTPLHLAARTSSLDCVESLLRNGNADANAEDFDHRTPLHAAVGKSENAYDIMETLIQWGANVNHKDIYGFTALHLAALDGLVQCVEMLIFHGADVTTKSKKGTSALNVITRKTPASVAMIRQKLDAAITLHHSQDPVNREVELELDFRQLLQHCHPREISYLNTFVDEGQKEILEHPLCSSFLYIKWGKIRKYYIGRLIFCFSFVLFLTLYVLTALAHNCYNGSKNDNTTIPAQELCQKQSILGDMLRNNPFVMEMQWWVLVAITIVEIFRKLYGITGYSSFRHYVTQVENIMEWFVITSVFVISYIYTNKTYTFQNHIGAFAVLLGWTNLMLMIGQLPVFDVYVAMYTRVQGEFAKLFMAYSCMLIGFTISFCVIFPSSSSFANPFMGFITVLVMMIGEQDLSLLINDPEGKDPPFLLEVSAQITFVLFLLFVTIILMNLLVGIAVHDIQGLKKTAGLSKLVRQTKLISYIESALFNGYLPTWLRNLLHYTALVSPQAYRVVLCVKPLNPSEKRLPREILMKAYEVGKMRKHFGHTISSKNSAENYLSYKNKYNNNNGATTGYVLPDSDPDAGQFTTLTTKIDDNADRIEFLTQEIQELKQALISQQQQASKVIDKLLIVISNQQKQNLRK
Chain of complexes formed by Nanchung protein and Water witch protein (Nan + Wtrw) (A0ACM8PYI9 entry or part of it): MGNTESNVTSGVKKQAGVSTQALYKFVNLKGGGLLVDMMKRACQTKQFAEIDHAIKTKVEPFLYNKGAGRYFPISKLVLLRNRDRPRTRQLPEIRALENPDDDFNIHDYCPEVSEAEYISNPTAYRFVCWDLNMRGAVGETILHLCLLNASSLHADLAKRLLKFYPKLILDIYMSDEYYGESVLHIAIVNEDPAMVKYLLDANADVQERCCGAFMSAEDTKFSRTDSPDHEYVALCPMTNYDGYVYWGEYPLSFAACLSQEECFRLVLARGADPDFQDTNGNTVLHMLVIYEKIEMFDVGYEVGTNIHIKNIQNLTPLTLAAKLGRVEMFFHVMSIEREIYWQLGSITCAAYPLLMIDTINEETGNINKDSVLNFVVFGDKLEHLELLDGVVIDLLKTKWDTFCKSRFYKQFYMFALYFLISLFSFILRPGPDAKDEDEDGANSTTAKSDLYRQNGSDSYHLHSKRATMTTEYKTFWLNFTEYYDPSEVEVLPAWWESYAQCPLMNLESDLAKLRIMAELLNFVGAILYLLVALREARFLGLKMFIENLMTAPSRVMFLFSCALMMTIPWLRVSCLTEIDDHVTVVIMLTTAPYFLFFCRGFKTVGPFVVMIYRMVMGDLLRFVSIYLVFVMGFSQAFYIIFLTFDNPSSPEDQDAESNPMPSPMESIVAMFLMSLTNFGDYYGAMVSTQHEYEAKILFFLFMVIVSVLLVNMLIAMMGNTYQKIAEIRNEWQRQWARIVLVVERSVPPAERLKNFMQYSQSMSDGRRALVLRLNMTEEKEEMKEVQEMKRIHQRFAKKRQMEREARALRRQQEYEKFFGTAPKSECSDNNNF

| Compound | Ca2+ mobilization response [1] | Ca2+ mobilization response [2] | Ca2+ mobilization response (Water witch (Wtrw)) | Ca2+ mobilization response [3] | Ca2+ mobilization response (Nanchung (Nan) [4]) | Ca2+ mobilization response [5] | Potency and efficacy of activation, Nanchung:Inactive compared with Nanchung:Water witch complexes ([1]; dose response of calcium responses, FIG. 4B) | Inhibition of binding of tritiated afidopyropen [6] | Inhibition of binding of tritiated afidopyropen [7] | Response of Nanchung alone to stimulation (Nanchung (Nan) [8]) |
| --- | --- | --- | --- | --- | --- | --- | --- | --- | --- | --- |
| NC(=O)c1cnccc1C(F)(F)F [TFNA-AM, 4-trifluoronicotinamide] | without effect |  |  |  |  |  |  |  |  |  |
| C=CCN=C=S [allyl isothiocyanate] | efficiently activated | activation of Ca2+ mobilization | efficiently activated | not in parental mammalian cells | nor in cells expressing Nancung (Nan) | not responsive |  |  |  |  |
| O=CC=Cc1ccccc1 [cinnamaldehyde] | efficiently activated | activation of Ca2+ mobilization | efficiently activated | not in parental mammalian cells | nor in cells expressing Nancung (Nan) | not responsive |  |  |  |  |
| N#CCNC(=O)c1cnccc1C(F)(F)F [flonicamid] | without effect |  |  |  |  |  |  |  |  |  |
| NC(=O)c1cccnc1 [nicotinamide] | evoked Ca2+ response |  | not in the cells expressing these proteins individually | not in parental mammalian cells |  | evoked Ca2+ response | nearly identical potency and efficacy | completely inhibited binding | completely inhibited binding |  |
| CC1=NNC(=O)N(/N=C/c2cccnc2)C1 [pymetrozine] | elicited calcium mobilization |  |  |  |  |  |  | completely inhibited binding | completely inhibited binding | does not respond |
